Starred links: 1 amine or outer side, 2 acyl side, 3 side chain; linkers in the order of their positions; H or OH if unused. Positions of bridges follow the written chain, without caps; N, C: chain ends. Non-standard residues stand in square brackets, D forms with d. Residues, ends and D or L forms follow the SMILES beside them. ξ: configuration not given here. *: point of attachment. 3Pal(6-NMe2) = CN(C)c1ccc(C[C@H](N)C(=O)O)cn1; Phe(4-CHF2) = N[C@@H](Cc1ccc(C(F)F)cc1)C(=O)O; NMePhe(3-Cl) = CN[C@@H](Cc1cccc(Cl)c1)C(=O)O; X12 = CCCC[C@@H](O)[C@H](N[*:1])C(=O)[*:2]; hPhe(4-Cl) = N[C@@H](CCc1ccc(Cl)cc1)C(=O)O; X14 = O=C([C@H](CCc1ccccc1Cl)N[*:1])[*:2]; Gly(NCH2CH2Ph) = O=C(O)CNCCc1ccccc1; hhPhe = N[C@@H](CCCc1ccccc1)C(=O)O; X3 = O=C([C@H](CCCCO)N[*:1])[*:2]; NMeF = CN[C@@H](Cc1ccccc1)C(=O)O; NMeGABA = CN(CCCC(=O)[*:2])[*:1]; NMeI = CC[C@H](C)[C@H](NC)C(=O)O; hPhe = N[C@@H](CCc1ccccc1)C(=O)O; NMeD = CN[C@@H](CC(=O)O)C(=O)O; NMeL = CN[C@@H](CC(C)C)C(=O)O; ξNMeF = CNC(Cc1ccccc1)C(=O)O; NMeV = CN[C@H](C(=O)O)C(C)C; NMeAbu = CC[C@H](NC)C(=O)O; NPentylGly = CCCCCNCC(=O)O; NMeA = CN[C@@H](C)C(=O)O; Piperidide = C1CCN(*)CC1; NBuGly = CCCCNCC(=O)O; X11 = FC(F)C(F)(F)C*; X2 = Fc1cncc(C*)c1; Bn = c1ccc(C*)cc1; ξS = NC(CO)C(=O)O; Sar = CNCC(=O)O; tBu = CC(C)(C)*; CHF2 = FC(F)*
Test system: not listed separately
Test: Caco-2 membrane permeability, improved method as used in the following Examples (96-well, 20 to 24 h preincubation)
Assay type: in vitro ADME
Details: human, Caco-2, Caco-2
Summary of the method: (§1)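 Caco-2 monolayers were grown three weeks and preincubated 20–24 h at 37 °C with compound in DMEM+FaSSIF (1% DMSO) apically. The assay then used compound in FaSSIF/HBSS (1% DMSO, pH 6.0) apically and HBSS with 4% BSA (pH 7.4) basally. Basal samples were taken at 180 min for LC/MS, and Papp (cm/sec) was calculated.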

Going from `CCCCN1CC(=O)N(C)[C@@H](CC(C)C)C(=O)N[C@H](C(=O)N2CCCCC2)CC(=O)N(C)[C@@H](C)C(=O)N[C@@H](Cc2ccc(N(C)C)nc2)C(=O)N(C)[C@@H](C)C(=O)N(C)[C@@H](C)C(=O)N[C@@H](CC(C)C)C(=O)N(C)[C@@H](Cc2cccc(Cl)c2)C(=O)N(C)[C@@H](CC(C)C)C(=O)N[C@@H]([C@@H](C)O)C1=O` [pd400] ([NMeA][3Pal(6-NMe2)][NMeA][NMeA]L[NMePhe(3-Cl)][NMeL]T[NBuGly][NMeL]D-Piperidide; lactam N-11) to `CC[C@H]1C(=O)N(C)[C@@H](Cc2ccccc2)C(=O)N[C@@H](C)C(=O)N(C)[C@@H](CC(C)C)C(=O)N(C)[C@@H](CC)C(=O)N[C@@H]([C@@H](C)O)C(=O)N(CCc2ccccc2)CC(=O)N(C)[C@@H](CC(C)C)C(=O)N[C@H](C(=O)N2CCCCC2)CC(=O)N(C)[C@@H](C(C)C)C(=O)N[C@@H](CC(C)C)C(=O)N1C` [pd410] ([NMeV]L[NMeAbu][NMeF]A[NMeL][NMeAbu]T[Gly(NCH2CH2Ph)][NMeL]D-Piperidide; lactam N-11), the Papp A→B at 180 min rises from 2.3 ×10⁻⁶ cm/s to 6 ×10⁻⁶ cm/s (2.6-fold).

Going from `CC[C@H](C)[C@@H]1NC(=O)[C@H](CC(C)C)N(C)C(=O)CN(C)C(=O)C[C@@H](C(=O)N2CCCCC2)NC(=O)[C@H](C(C)C)N(C)C(=O)[C@H](Cc2ccc(OC(F)F)cc2)NC(=O)[C@H](CC(C)C)N(C)C(=O)[C@H](Cc2ccccc2)N(C)C(=O)CN(C)C(=O)[C@H]([C@@H](C)O)NC(=O)[C@H](CC(C)C)N(C)C1=O` [pd481] ([Sar][NMeL]I[NMeL]T[Sar][NMeF][NMeL]Y(CHF2)[NMeV]D-Piperidide; lactam N-11) to `CC(C)C[C@H]1C(=O)N[C@@H](COC(C)(C)C)C(=O)N(C)[C@@H](Cc2ccccc2)C(=O)N(C)[C@@H](C(C)C)C(=O)N[C@H](C(=O)N2CCCCC2)CC(=O)N[C@H](C(C)C)C(=O)N(C)[C@@H](C)C(=O)N[C@@H](CCc2ccccc2Cl)C(=O)N(C)[C@@H](CC(C)C)C(=O)N[C@@H]([C@@H](C)O)C(=O)N(C)CC(=O)N1C` [pd350] ([dV][NMeA][X14][NMeL]T[Sar][NMeL]S(tBu)[NMeF][NMeV]D-Piperidide; lactam N-11), the Papp A→B at 180 min falls from 3.8 ×10⁻⁶ cm/s to 1.7 ×10⁻⁶ cm/s (2.2-fold).

With `CC(=O)NCCCC[C@@H]1NC(=O)[C@H](CC(C)C)N(C)C(=O)[C@H](CC(C)C)NC(=O)[C@H](Cc2ccccc2)N(C)C(=O)[C@@H](C(C)C)NC(=O)C[C@@H](C(=O)N2CCCCC2)NC(=O)[C@H](C(C)C)N(C)C(=O)[C@H](Cc2ccccc2)N(C)C(=O)[C@H](COC(C)(C)C)NC(=O)[C@H](CC(C)C)N(C)C(=O)CN(C)C1=O` [pd470] ([dV][NMeF]L[NMeL]K(Ac)[Sar][NMeL]S(tBu)[NMeF][NMeV]D-Piperidide; lactam N-11) the Papp A→B at 180 min was 2.1 ×10⁻⁶ cm/s.

Same assay, conditions: human, Caco-2, Caco-2 (cm/sec)

`CC(C)C[C@@H]1NC(=O)[C@H](Cc2ccccc2)N(C)C(=O)[C@H](C)NC(=O)C[C@@H](C(=O)N2CCCCC2)N(C)C(=O)[C@H](Cc2ccccc2)N(C)C(=O)[C@H](Cc2ccccc2)N(C)C(=O)[C@H](COC(C)(C)C)NC(=O)[C@H](CC(C)C)N(C)C(=O)CN(C)C(=O)[C@H]([C@@H](C)O)NC(=O)[C@H](CC(C)C)N(C)C1=O` [pd209] (A[NMeF]L[NMeL]T[Sar][NMeL]S(tBu)[NMeF][NMeF][NMeD]-Piperidide; lactam N-11) and `CC(C)C[C@H]1C(=O)N[C@@H](COC(C)(C)C)C(=O)N(C)[C@@H](Cc2ccccc2)C(=O)N(C)[C@@H](CC(C)C)C(=O)N(C)[C@H](C(=O)N2CCCCC2)CC(=O)N[C@H](C)C(=O)N(C)[C@@H](Cc2cccc(Cl)c2)C(=O)N[C@@H](C(C)C)C(=O)N(C)[C@@H](C(C)C)C(=O)N[C@@H]([C@@H](C)O)C(=O)N(C)CC(=O)N1C` [pd159] ([dA][NMePhe(3-Cl)]V[NMeV]T[Sar][NMeL]S(tBu)[NMeF][NMeL][NMeD]-Piperidide; lactam N-11) are within 1.5-fold of each other in Papp A→B at 180 min: 1.7 ×10⁻⁶ cm/s for the first, 1.8 ×10⁻⁶ cm/s for the second.

`CC(C)C[C@H]1C(=O)N[C@@H](COC(C)(C)C)C(=O)N(C)[C@@H](Cc2ccccc2)C(=O)N(C)[C@@H](C(C)C)C(=O)N[C@H](C(=O)N2CCCCC2)CC(=O)N[C@H](C(C)C)C(=O)N(C)C(Cc2ccccc2)C(=O)N[C@@H](COCc2cncc(F)c2)C(=O)N(C)[C@@H](CC(C)C)C(=O)N[C@@H]([C@@H](C)O)C(=O)N(C)CC(=O)N1C` (stereo partly drawn) [pd180] ([dV][ξNMeF]S(X2)[NMeL]T[Sar][NMeL]S(tBu)[NMeF][NMeV]D-Piperidide; lactam N-11) gave a Papp A→B at 180 min of 2.4 ×10⁻⁶ cm/s.

Test system: Caco-2 cells
Test: as above
Assay type: in vitro ADME
Details: Papp, Caco-2 membrane permeability, improved method
Summary of the method: as §1

`CC(C)C[C@H]1C(=O)N[C@@H](CCCCO)C(=O)N(C)[C@@H](CC(C)C)C(=O)N(C)[C@@H](CC(C)C)C(=O)N[C@H](C(=O)N2CCCCC2)CC(=O)N(C)CCCC(=O)N(C)[C@@H](C(C)C)C(=O)N[C@@H](C(C)C)C(=O)N(C)[C@@H](Cc2ccccc2)C(=O)N(C)[C@@H](Cc2ccccc2)C(=O)N[C@@H](COC(C)(C)C)C(=O)N1C` [pd447] ([NMeGABA][NMeV]V[NMeF][NMeF]S(tBu)[NMeL][X3][NMeL][NMeL]D-Piperidide; lactam N-11) showed a Caco-2 of 1.1e-06 cm/s.

Same assay, conditions: human, Caco-2, 180 min

`CC(C)C[C@H]1C(=O)N[C@@H](COC(C)(C)C)C(=O)N(C)[C@@H](Cc2ccccc2)C(=O)N(C)[C@@H](CC(C)C)C(=O)N[C@H](C(=O)N2CCCCC2)CC(=O)N[C@H](C(C)C)C(=O)N(C)[C@@H](C(C)C)C(=O)N[C@@H](Cc2ccc(C(F)F)cc2)C(=O)N(C)[C@@H](CC(C)C)C(=O)N[C@@H]([C@@H](C)O)C(=O)N(C)CC(=O)N1C` [pd472] ([dV][NMeV][Phe(4-CHF2)][NMeL]T[Sar][NMeL]S(tBu)[NMeF][NMeL]D-Piperidide; lactam N-11) and `CC(C)C[C@H]1C(=O)N[C@@H](COC(C)(C)C)C(=O)N(C)[C@@H](Cc2ccccc2)C(=O)N(C)[C@@H](C(C)C)C(=O)N[C@H](C(=O)N2CCCCC2)CC(=O)N[C@H](C(C)C)C(=O)N(C)[C@@H](C)C(=O)N[C@@H](CCc2ccc(Cl)cc2)C(=O)N(C)[C@@H](CC(C)C)C(=O)N[C@@H]([C@@H](C)O)C(=O)N(C)CC(=O)N1C` [pd359] ([dV][NMeA][hPhe(4-Cl)][NMeL]T[Sar][NMeL]S(tBu)[NMeF][NMeV]D-Piperidide; lactam N-11) are the same in Caco-2: 1.1e-06 cm/s for the first, 1.1e-06 cm/s for the second.

`CCCC[C@@H](O)[C@@H]1NC(=O)[C@H](CC(C)C)N(C)C(=O)[C@H](CC(C)C)NC(=O)[C@H](Cc2ccccc2)N(C)C(=O)[C@@H](C)NC(=O)C[C@@H](C(=O)N2CCCCC2)NC(=O)[C@H](C)N(C)C(=O)[C@H](Cc2ccccc2)N(C)C(=O)[C@H](COC(C)(C)C)NC(=O)[C@H](CC(C)C)N(C)C(=O)CN(C)C1=O` [pd466] ([dA][NMeF]L[NMeL][X12][Sar][NMeL]S(tBu)[NMeF][NMeA]D-Piperidide; lactam N-11) and `CC(C)C[C@H]1C(=O)N[C@H](C(=O)N2CCCCC2)CC(=O)N[C@H](C)C(=O)N(C)[C@@H](CC(C)C)C(=O)N[C@@H](COC(C)(C)C)C(=O)N(C)[C@@H](C)C(=O)N(C)[C@@H](CC(C)C)C(=O)N(C)[C@@H](C)C(=O)N[C@@H]([C@@H](C)O)C(=O)N(C)[C@@H](Cc2ccccc2)C(=O)N[C@@H](CCc2ccccc2)C(=O)N1C` [pd309] ([dA][NMeL]S(tBu)[NMeA][NMeL][NMeA]T[NMeF][hPhe][NMeL]D-Piperidide; lactam N-11) are the same in Caco-2: 1.1e-06 cm/s for the first, 1.1e-06 cm/s for the second.

First: CC[C@H](C)[C@H]1C(=O)N[C@@H]([C@@H](C)O)C(=O)N(C)CC(=O)N(C)[C@@H](CC(C)C)C(=O)N[C@H](C(=O)N2CCCCC2)CC(=O)N(C)[C@@H](C)C(=O)N[C@@H](CC(C)C)C(=O)N(C)[C@@H](CC(C)C)C(=O)N(C)[C@@H](Cc2ccccc2)C(=O)N[C@@H](COCC(F)(F)C(F)F)C(=O)N(C)[C@@H](Cc2ccccc2)C(=O)N1C [pd348] ([NMeA]L[NMeL][NMeF]S(X11)[NMeF][NMeI]T[Sar][NMeL]D-Piperidide; lactam N-11)
Second: CC[C@H](C)[C@@H]1NC(=O)[C@H](Cc2ccccc2)N(C)C(=O)CN(C)C(=O)C[C@@H](C(=O)N2CCCCC2)NC(=O)[C@H]([C@@H](C)CC)N(C)C(=O)C(COCc2ccccc2)NC(=O)[C@H](CC(C)C)N(C)C(=O)[C@H](Cc2ccccc2)N(C)C(=O)CN(C)C(=O)[C@H]([C@@H](C)O)NC(=O)[C@H](CC(C)C)N(C)C1=O (stereo partly drawn) [pd178] ([Sar][NMeF]I[NMeL]T[Sar][NMeF][NMeL][ξS](Bn)[NMeI]D-Piperidide; lactam N-11)
The Caco-2 of the first is 2.3-fold lower: 1.1e-06 cm/s for the first, 2.5e-06 cm/s for the second.

`CC(C)C[C@H]1C(=O)N[C@@H](COC(C)(C)C)C(=O)N(C)[C@@H](Cc2ccccc2)C(=O)N(C)[C@@H](C)C(=O)N[C@H](C(=O)N2CCCCC2)CC(=O)N[C@H](C(C)C)C(=O)N(C)[C@@H](Cc2ccccc2)C(=O)N[C@@H](CCCc2ccccc2)C(=O)N(C)[C@@H](CC(C)C)C(=O)N[C@@H]([C@@H](C)O)C(=O)N(C)CC(=O)N1C` [pd363] ([dV][NMeF][hhPhe][NMeL]T[Sar][NMeL]S(tBu)[NMeF][NMeA]D-Piperidide; lactam N-11) and `CCCCCN1CC(=O)N[C@@H](COC(C)(C)C)C(=O)N(C)[C@@H](Cc2ccccc2)C(=O)N(C)[C@@H](CC(C)C)C(=O)N[C@H](C(=O)N2CCCCC2)CC(=O)N[C@H](CC(C)C)C(=O)N(C)[C@@H](Cc2ccccc2)C(=O)N[C@@H]([C@@H](C)CC)C(=O)N(C)[C@@H](CC)C(=O)N[C@@H]([C@@H](C)O)C(=O)N(C)CC1=O` [pd406] ([dL][NMeF]I[NMeAbu]T[Sar][NPentylGly]S(tBu)[NMeF][NMeL]D-Piperidide; lactam N-11) are the same in Caco-2: 1.1e-06 cm/s for the first, 1.1e-06 cm/s for the second.
